Measured values: publication PMC3927586, “Protein kinase C-delta inactivation inhibits the proliferation and survival of cancer stem cells in culture and in vivo” (BMC Cancer, 2014)

Assays:
[1] = system: human breast cancer stem cell (BCSC) xenografts; test: Breast cancer stem cell xenograft model; format: in vivo, mice; details: rottlerin 5,000 μg/kg intraperitoneally, 15 days
Experimental: These studies were performed with the approval of the Institutional Animal Care and Use Committee of Boston University. Breast cancer stem cells (2 × 10^5) grown from a metastatic tumor were suspended in human breast cancer stem cell complete growth media (Celprogen, San Pedro, CA) and injected subcutaneous into the right flank of female J:NU mice (The Jackson Laboratory, ME) under anesthesia. After palpable tumors developed, the mice were divided into two groups of animals. The control group received daily intraperitoneal injections of vehicle (DMSO) while the treatment group received daily intraperitoneal injections of a PKCδ inhibitor (rottlerin 5,000 μg/kg) for 15 days. The length and width of tumors were measured with a vernier caliper and tumor volumes were calculated. Survival was calculated as the day tumors reached the maximum size allowed by the protocol (2 cm diameter).
Figure 6 Effects of PKCδ inhibitor on tumor growth and survival in a xenograft human breast cancer stem cell model. Breast cancer stem cell xenografts were established and animals were treated with vehicle or rottlerin for 15 days, as described in Methods. (A) Tumor volumes plotted over time, until tumors in all the control animals reached the maximum volume allowed by the protocol (approximately 15 days). […]

PCSC = test: Clonogenic assay with washout; format: cell-based, human; details: rottlerin 10 μM, colonies at 15 days
Experimental: 100,000 cells were seeded on 100 mm dishes with 10 ml media per dish. On day 4, cells were treated with a PKCδ inhibitor or vehicle control for either 6, 18, 24 or 48 hours. Cells were trypsinized; counted via the trypan blue exclusion method in order to determine the number of live cells in the sample, and 300 live cells were seeded in triplicate onto 6-well plates. Cells were monitored for appropriate colony size and re-fed every three to four days. At Day 15, cells were stained with ethidium bromide and counted using UVP LabWorks software (Waltham, MA).
(§1) Figure 2 Effects of PKCδ inhibitors on human cancer stem cells. (A) PCSC and PrCSC cells at 80% confluence were exposed to rottlerin. DMSO served as vehicle control (Vehicle). After 24 and 72 hr of exposure, cell mass was evaluated by MTT assay. Control values were normalized to 100%. p values for comparison between treatments reached significance at 24 hr of exposure (p≤0.01) for both cell types, and remained significant at 72 hr. […] Cytotoxicity was evaluated by LDH-release assay. […] Viable cells were enumerated and re-plated in media without inhibitor, and colony numbers were quantitated 15 days later. p values for comparison of treatment effects on clonogenic capacity reached significance (p=0.005) at 18 hr of exposure and remained significant for all subsequent exposure times. […]

[2] = mice; cited from earlier work
[3] = system: normal primary cells or cell lines; details: at the concentrations employed herein; cited from earlier work
PrCSC cells [4] = test: Cytotoxicity (LDH release) in prostate cancer stem cells; format: cell-based, human; details: dose-dependent, 24 and 72 hr
Experimental: LDH release was assessed by spectrophotometrically measuring the oxidation of NADH in both the cells and media. Cells were seeded in 24-well plates, and exposed to PKCδ inhibitors or vehicle. After different times of exposure, cytotoxicity was quantified by a standard measurement of LDH release with the use of the LDH assay kit (Roche Molecular Biochemicals) according to the manufacturer’s protocol. Briefly, total culture medium was cleared by centrifugation. For assay of released LDH, supernatants were collected. To assess total LDH in cells, Triton X-100 was added to vehicle (control) wells to release intracellular LDH. LDH assay reagent was added to lysates or supernatants and incubated for up to 30 min at room temperature in dark, the reaction was stopped, and the absorbance was measured at 490 nm. The percentage of LDH release was then calculated as the LDH in the supernatants as a fraction of the total LDH.
Figure 2 Effects of PKCδ inhibitors on human cancer stem cells. (A) PCSC and PrCSC cells at 80% confluence were exposed to rottlerin. DMSO served as vehicle control (Vehicle). After 24 and 72 hr of exposure, cell mass was evaluated by MTT assay. Control values were normalized to 100%. p values for comparison between treatments reached significance at 24 hr of exposure (p≤0.01) for both cell types, and remained significant at 72 hr. (B) PCSC and PrCSC cells at 50% confluence were exposed to rottlerin. Cytotoxicity was evaluated by LDH-release assay. […] Viable cells were enumerated and re-plated in media without inhibitor, and colony numbers were quantitated 15 days later. p values for comparison of treatment effects on clonogenic capacity reached significance (p=0.005) at 18 hr of exposure and remained significant for all subsequent exposure times. […] Cytotoxicity was evaluated by LDH-release assay, as in panel B. p values for comparison between treatment effects on LDH release reached significance at 24 hr of exposure to 2.5 μM KAM1 for PCSC cells and at 10 μM for PrCSC (p≤0.01), and remained significant at 72 hr for all concentrations of KAM1. […]

PrCSC cells [5] = test: Cell proliferation (MTT) of prostate cancer stem cells; format: cell-based, human; details: as early as 24 hr after exposure
Experimental: Cell proliferation was assessed using an MTT [3-(4,5-dimethylthiazol-2-yl)-2,5-diphenyltetrazolium bromide] assay (Roche, Mannheim, Germany). The number of viable cells growing in a single well on a 96-well microtiter plate was estimated by adding 10 μl of MTT solution (5 mg/ml in phosphate-buffered saline [PBS]). After 4 h of incubation at 37°C, the stain was diluted with 100 μl of dimethyl sulfoxide. The optical densities were quantified at a test wavelength of 570 nm and a reference wavelength of 690 nm on a multiwell spectrophotometer. In some assays, MTS was used as substrate (Promega, Madison, WI), and the absorbance of the product was monitored at 490 nm. Cell enumeration was carried out using a hemocytometer, and viable cells identified by trypan blue exclusion.
as §1, with “assay.” for “assay. Control values were normalized to 100%. p values for comparison between treatments reached significance at 24 hr of exposure (p≤0.01) for both cell types, and remained significant at 72 hr.”

[6] = Drug-like properties: hydrophobicity; format: physicochemical
[7] = system: cells with aberrant Ras signaling; set-up: method as in PMID 24506253; details: cited from earlier work

Row | SMILES | survival / tumor-free status after treatment ([1]; monitoring continued after cessation) | effect on growth of BCSC xenografts ([1]; nude (J:NU) mice, vs vehicle) | decrease of clonogenic capacity of PCSC (PCSC; 18 hr exposure then washout) [%] | reduction of clonogenic potential of PCSC (PCSC; 48 hr exposure then washout) | tolerability when administered orally or intraperitoneally [2] | cytostatic or cytotoxic effect on normal primary cells or cell lines [3] | cytotoxicity in PrCSC (LDH release) (PrCSC cells [4]) | effect on proliferation of PrCSC (PrCSC cells [5]) | hydrophobicity [6] | concentrations producing cytotoxic activity against cells with aberrant Ras signaling [7]
1 | CC(=O)c1c(O)c(C)c(O)c(Cc2c(O)c3c(c(C(=O)/C=C/c4ccccc4)c2O)OC(C)(C)C=C3)c1O [rottlerin, Rottlerin, reference compound] | some animals remaining tumor-free even at day 300 | effectively inhibited the growth of the xenografts, even producing tumor regression | 40 | more than 90% | well-tolerated | not cytostatic or cytotoxic | induced cytotoxicity | significant dose-dependent inhibition of proliferation |  | 
2 | CC1(C)C=Cc2cc(CCn3c4ccccc4c4ccccc43)cc(C=O)c2O1 [BJE6-106, 6-(2-(9H-carbazol-9-yl)ethyl)-2,2-dimethyl-2H-chromene-8-carbaldehyde] |  |  |  |  |  |  |  |  | highly hydrophobic | nM concentrations
